Assay results reported in patent publication US20040077591A1, “Histone deacetylase inhibitors for the treatment of multiple sclerosis, amyotrophic lateral sclerosis and Alzheimer's Disease” (The Brigham and Women's Hospital, Inc., priority 2002, published 2004).
Marks after values point to notes of the source that are not given here.

Legend:
EAE mice spinal cords = assay: DNA microarray analysis of EAE mice spinal cords; assay type: in vivo
Excerpt: (2) Modulation of genes involved in neuroprotection and immune regulation by TSA. a) Microarrays detect protective genes regulated by TSA in EAE mice spinal cords. The inventor pooled RNA from tissues of three animals in each group (TSA treated and vehicle-treated) for DNA microarray analysis. As shown (Table 3), intraperitoneal TSA led to the enhanced expression of mRNAs for the antioxidant glutathione peroxidase (Gpx1) and the neuroprotective insulin-like growth factor 2 (Igf2). […] Intraperitoneal TSA also led to decreased expression in EAE spinal cords of the chemokine receptor CCR6, immunoglobulin V(H)II, the vascular homeostasis-related phospholipase A2, and upregulation of the immunomodulatory factor interferon-α2 (Ifna2), the latter with known beneficial effects in MS patients.
Microarrays detect protective genes co-regulated by TSA in EAE mice spinal cords and spleens.

[1] = test system: experimental autoimmune encephalomyelitis (EAE) in mice; assay: MOG-induced EAE in mice, clinical disability scoring; assay type: in vivo, C57BL/6 female mice; conditions: for EAE clinical disability: TSA 7.5 mg/kg/dose/d i.p., apparent in the chronic (days 20-40) phase
Excerpt: FIG. 1—Efficacy of HDAC inhibitor treatment in reducing the clinical manifestations of experimental autoimmune encephalomyelitis (EAE) in mice. Mean clinical scores reflect reduced clinical disability by TSA in the neurodegenerative phase of EAE (● TSA-treated; ◯ vehicle-treated) (*P<0.05 by Fisher's protected least significant difference (PLSD) test). The remission phase lasted from days 19 to 34 following disease induction in a first experiment, days 21 to 32 in a second experiment. Animals were scored for signs of disability using the following widely used scale: 1, limp tail or isolated weakness of gait without limp tail; 2, partial hind leg paralysis; 3, total hind leg or partial hind and front leg paralysis and/or urinary incontinence; 4, total hind leg and partial front leg paralysis; 5, moribund or dead animal (with minor modifications from Issazadeh et al. (1998)). The definitions used were: (1) mean peak remission: mean of maximal score reached during remission, and (2) mean % days of severity: mean % of days with scores ≧2.
Experimental autoimmune encephalomyelitis (EAE) is the most widely accepted animal model for multiple sclerosis. […] Medications that currently modify the disease course in humans also modify the disease course in the animal model. The inventor has used the C57BL/6J mice (female mice 6-8 weeks old from Jackson Laboratories) for the experiments, which involve the administration of myelin oligodendrocyte glycoprotein (MOG), a myelin antigen, that induces autoimmunity against the brain tissue. EAE can also be induced in laboratory mice and rats using other myelin antigens.
Efficacy of HDAC inhibitor treatment in reducing the clinical manifestations of experimental autoimmune encephalomyelitis (EAE) in mice. The inventor injected 6-8 week-old C57BL/6 female mice (Jackson Laboratories, Bar Harbor, Me.) subcutaneously with 150 μg myelin oligodendrocyte glycoprotein (MOG)35-55 peptide (Quality Controlled Biochemicals, Hopkinton, Mass.) in PBS and CFA containing 0.4 mg of Mycobacterium tuberculosis (H37Ra, Difco, Detroit, Mich.), and i.p. on days 1 and 3 with 200 ng Pertussis (List Biological, Campbell, Calif.). TSA (7.5 mg/kg/dose/d i.p.) (Biomol, Plymouth Meeting, Pa. and Wako, Richmond, Va.) in PBS (9):DMSO (1) vehicle was begun on day 4. Ten mice were given vehicle and 9 were given TSA in a first experiment, wherease a second experiment utilized 15 per group.

For `CC(/C=C/C(=O)NO)=C\[C@@H](C)C(=O)c1ccc(N(C)C)cc1` [TSA, Trichostatin A], the “Fold Δ CNS, Paired box gene 4 (Pax4)” value (EAE mice spinal cords; Table 5, probe set AB010557, i.p. TSA, EAE mice spinal cord) was −12.5 fold, the “Fold Δ CNS, Axin” value (EAE mice spinal cords; Table 5, probe set AF009011, i.p. TSA, EAE mice spinal cord) was 4.9 fold and the “Fold Δ CNS, DNA methyltransferase (Dnmt1)” value (EAE mice spinal cords; Table 5, probe set AF036008, i.p. TSA, EAE mice spinal cord) was −8.8 fold. The “Fold Δ CNS, Metaxin homolog” value (EAE mice spinal cords; Table 5, probe set AV108173, i.p. TSA, EAE mice spinal cord) was −11.6 fold, the “Fold Δ CNS, Thromboxane A2 receptor (Tbxa2r)” value (EAE mice spinal cords; Table 5, probe set D10849, i.p. TSA, EAE mice spinal cord) was −5.2 fold and the “Fold Δ CNS, Growth differentiation factor (Gdf9)” value (EAE mice spinal cords; Table 5, probe set L06444, i.p. TSA, EAE mice spinal cord) was 3.5 fold. The “Fold Δ CNS, Neurofilament heavy (Nefh)” value (EAE mice spinal cords; Table 5, probe set M35131, i.p. TSA, EAE mice spinal cord) was 2.3 fold, the “Fold Δ CNS, Snail homolog 1 (Snail1)” value (EAE mice spinal cords; Table 5, probe set M95604, i.p. TSA, EAE mice spinal cord) was 5.3 fold and the “Fold Δ CNS, Dishevelled 2 (Dvl2)” value (EAE mice spinal cords; Table 5, probe set U24160, i.p. TSA, EAE mice spinal cord) was −2.1 fold. For the same compound, the “Fold Δ CNS, Rearranged in lymphoma (Frat1)” value (EAE mice spinal cords; Table 5, probe set U58974, i.p. TSA, EAE mice spinal cord) was 4.5 fold, the “Fold Δ CNS, Immunoglobulin H and L variable” value (EAE mice spinal cords; Table 5, probe set U62386, i.p. TSA, EAE mice spinal cord) was −2.1 fold and the “Fold Δ CNS, Cyclin D-interacting Dmp1 (Dmtf1)” value (EAE mice spinal cords; Table 5, probe set U70017, i.p. TSA, EAE mice spinal cord) was 5.4 fold. The “Fold Δ CNS, Neuronal PAS domain 1 (Npas1)” value (EAE mice spinal cords; Table 5, probe set U77967, i.p. TSA, EAE mice spinal cord) was 2 fold, the “Fold Δ CNS, Phospholipase C-beta-1b (Picb1)” value (EAE mice spinal cords; Table 5, probe set U85714, i.p. TSA, EAE mice spinal cord) was 3.4 fold and the “Fold Δ CNS, Glutathione peroxidase (Gpx1)” value (EAE mice spinal cords; Table 5, probe set X03920, i.p. TSA, EAE mice spinal cord) was 3 fold. For the same compound, the “Fold Δ CNS, Immunoglobulin kappa chain (1gk-V20)” value (EAE mice spinal cords; Table 5, probe set X16678, i.p. TSA, EAE mice spinal cord) was −3.3 fold, the “Fold Δ CNS, Paired box gene 2 (Pax2)” value (EAE mice spinal cords; Table 5, probe set X55781, i.p. TSA, EAE mice spinal cord) was 7.1 fold and the “Fold Δ CNS, Max binding protein ROX (Mnt)” value (EAE mice spinal cords; Table 5, probe set Y07609, i.p. TSA, EAE mice spinal cord) was −2.2 fold. The “Fold Change, Ten-m3” value (EAE mice spinal cords; probe set 92500, spinal cord, I.P. TSA vs vehicle-treated EAE mice) was −5.4 fold, the “Fold Change, Thymopoietin (Tmpo)” value (EAE mice spinal cords; probe set 92782, spinal cord, I.P. TSA vs vehicle-treated EAE mice) was −6.4 fold and the “Fold Change, Histidine ammonia lyase (Ha)” value (EAE mice spinal cords; probe set 92833, spinal cord, I.P. TSA vs vehicle-treated EAE mice) was 5.3 fold. For the same compound, the “Fold Change, SH3 domain protein 2B” value (EAE mice spinal cords; probe set 93275, spinal cord, I.P. TSA vs vehicle-treated EAE mice) was 4.5 fold, the “Fold Change, Hox-3.1” value (EAE mice spinal cords; probe set 93378, spinal cord, I.P. TSA vs vehicle-treated EAE mice) was −5.3 fold and the “Fold Change, Cdk inhibitor p19” value (EAE mice spinal cords; probe set 94521, spinal cord, I.P. TSA vs vehicle-treated EAE mice) was −5.3 fold. The “Fold Change, IFN-alpha-2 (1fna2)” value (EAE mice spinal cords; probe set 94717, spinal cord, I.P. TSA vs vehicle-treated EAE mice) was 5.6 fold, the “Fold Change, Histocompatibility 2 D region locus 1” value (EAE mice spinal cords; probe set 97540, spinal cord, I.P. TSA vs vehicle-treated EAE mice) was 7.4 fold and the “Fold Change, Murinoglobulin (Mug)” value (EAE mice spinal cords; probe set 97680, spinal cord, I.P. TSA vs vehicle-treated EAE mice) was −7.2 fold. The “Fold Change, Transferrin-like p97” value (EAE mice spinal cords; probe set 97970, spinal cord, I.P. TSA vs vehicle-treated EAE mice) was −5.7 fold, the “Fold Change, Insulin-like growth factor 2 (1gf2)” value (EAE mice spinal cords; probe set 98623, spinal cord, I.P. TSA vs vehicle-treated EAE mice) was 5.2 fold and the “Fold Change, Phospholipase A2 (Pla2)” value (EAE mice spinal cords; probe set 99326, spinal cord, I.P. TSA vs vehicle-treated EAE mice) was −6.4 fold. For the same compound, the “Fold Change, CCR6” value (EAE mice spinal cords; probe set 99899, spinal cord, I.P. TSA vs vehicle-treated EAE mice) was −7.3 fold, the “Fold Change, Ig V(H)II” value (EAE mice spinal cords; probe set 100362, spinal cord, I.P. TSA vs vehicle-treated EAE mice) was −4.9 fold and the “Fold Change, Glutathione peroxidase (Gpx1)” value (EAE mice spinal cords; probe set 101676, spinal cord, I.P. TSA vs vehicle-treated EAE mice) was 6.9 fold. The “Fold Change, Mapkapk5” value (EAE mice spinal cords; probe set 104364, spinal cord, I.P. TSA vs vehicle-treated EAE mice) was −6.5 fold, the “Mean % Days of Severity (mean % of days with scores ≧2)” value ([1]; TSA 7.5 mg/kg/dose/d i.p. from day 4, P = 0.0011 vs vehicle) was 33.9 ± 4.3** % and the “Days of Onset (Clinical EAE)” value ([1]; TSA 7.5 mg/kg/dose/d i.p. from day 4, two separate exp. pooled) was 13 ± 0.5 days. The EAE clinical disability [1] was “decrease in EAE clinical disability”, the EAE clinical disability ([1]; listed as Trichostatin A) was “effective in reducing EAE in mice” and the “Mean Peak Remission Phase (mean of maximal score reached during remission)” value ([1]; clinical score scale 1-5, TSA 7.5 mg/kg/dose/d i.p. from day 4, P = 0.0036 vs vehicle) was 1.8 ± 0.1*.
